The source of these data is US20190345150A1, “MICROBIOCIDAL OXADIAZOLE DERIVATIVES” (SYNGENTA PARTICIPATIONS AG, priority 2016, published 2019).

In data set [1] the test system is Puccinia recondita f. Sp. Tritici. Briefly: Puccinia recondita f. sp. tritici / wheat / leaf disc curative (brown rust). Type of data set: in vivo. As to conditions: foliar, 24 h, 200 ppm in the applied formulation, wheat leaf segments cv. Kanzler, curative (applied 1 day after inoculation), compared to untreated control, read-out: disease control. As to the method:
Leaf disks or leaf segments of various plant species are cut from plants grown in a greenhouse. The cut leaf disks or segments are placed in multiwell plates (24-well format) onto water agar. The leaf disks are sprayed with a test solution before (preventative) or after (curative) inoculation. Compounds to be tested are prepared as DMSO solutions (max. 10 mg/ml) which are diluted to the appropriate concentration with 0.025% Tween20 just before spraying. The inoculated leaf disks or segments are incubated under defined conditions (temperature, relative humidity, light, etc.) according to the respective test system. A single evaluation of disease level is carried out 3 to 14 days after inoculation, depending on the pathosystem. Percent disease control relative to the untreated check leaf disks or segments is then calculated. Wheat leaf segments cv. Kanzler are placed on agar in multiwell plates (24-well format). The leaf segments are then inoculated with a spore suspension of the fungus. Plates were stored in darkness at 19° C. and 75% relative humidity. The formulated test compound diluted in water was applied 1 day after inoculation. The leaf segments were incubated at 19° C. and 75% relative humidity under a light regime of 12 hours light/12 hours darkness in a climate cabinet and the activity of a compound was assessed as percent disease control compared to untreated when an appropriate level of disease damage appears in untreated check leaf segments (6 to 8 days after application).

Data set [2] shares this test system. Briefly: Puccinia recondita f. sp. tritici / wheat / leaf disc preventative (brown rust). It counts as in vivo. As to conditions: foliar, 200 ppm in the applied formulation, wheat leaf segments cv. Kanzler, preventative (inoculated 1 day after application), compared to untreated control, read-out: disease control. As to the method:
Leaf disks or leaf segments of various plant species are cut from plants grown in a greenhouse. The cut leaf disks or segments are placed in multiwell plates (24-well format) onto water agar. The leaf disks are sprayed with a test solution before (preventative) or after (curative) inoculation. Compounds to be tested are prepared as DMSO solutions (max. 10 mg/ml) which are diluted to the appropriate concentration with 0.025% Tween20 just before spraying. The inoculated leaf disks or segments are incubated under defined conditions (temperature, relative humidity, light, etc.) according to the respective test system. A single evaluation of disease level is carried out 3 to 14 days after inoculation, depending on the pathosystem. Percent disease control relative to the untreated check leaf disks or segments is then calculated. Wheat leaf segments cv. Kanzler were placed on agar in multiwell plates (24-well format) and sprayed with the formulated test compound diluted in water. The leaf disks were inoculated with a spore suspension of the fungus 1 day after application. The inoculated leaf segments were incubated at 19° C. and 75% relative humidity (rh) under a light regime of 12 hours light/12 hours darkness in a climate cabinet and the activity of a compound was assessed as percent disease control compared to untreated when an appropriate level of disease damage appears in untreated check leaf segments (7 to 9 days after application).

The subject of data set [3] is Glomerella laqenarium (Colletotrichum laqenarium). Briefly: Glomerella lagenarium liquid culture / cucumber / preventative (anthracnose). It counts as cell-based. To be noted: 20 ppm in the applied formulation, liquid culture in PDB, growth inhibition measured photometrically 3 to 4 days after application, compared to untreated control, read-out: disease control. As to the method:
Mycelia fragments or conidia suspensions of a fungus prepared either freshly from liquid cultures of the fungus or from cryogenic storage, are directly mixed into nutrient broth. DMSO solutions of the test compound (max. 10 mg/ml) are diluted with 0.025% Tween20 by a factor of 50 and 10 μl of this solution is pipetted into a microtiter plate (96-well format). The nutrient broth containing the fungal spores/mycelia fragments is then added to give an end concentration of the tested compound. The test plates are incubated in the dark at 24° C. and 96% relative humidity. The inhibition of fungal growth is determined photometrically after 2 to 7 days, depending on the pathosystem, and percent antifungal activity relative to the untreated check is calculated. Conidia of the fungus from cryogenic storage are directly mixed into nutrient broth (PDB—potato dextrose broth). After placing a (DMSO) solution of test compound into a microtiter plate (96-well format), the nutrient broth containing the fungal spores is added. The test plates are incubated at 24° C. and the inhibition of growth is measured photometrically 3 to 4 days after application.

A further data set deals with Phakopsora pachyrhizi. Briefly: Phakopsora pachyrhizi / soybean / leaf disc preventative (Asian soybean rust). It counts as in vivo. As to conditions: foliar, 200 ppm in the applied formulation, soybean leaf disks, preventative (inoculated 1 day after application), compared to untreated control, read-out: disease control. As to the method:
Leaf disks or leaf segments of various plant species are cut from plants grown in a greenhouse. The cut leaf disks or segments are placed in multiwell plates (24-well format) onto water agar. The leaf disks are sprayed with a test solution before (preventative) or after (curative) inoculation. Compounds to be tested are prepared as DMSO solutions (max. 10 mg/ml) which are diluted to the appropriate concentration with 0.025% Tween20 just before spraying. The inoculated leaf disks or segments are incubated under defined conditions (temperature, relative humidity, light, etc.) according to the respective test system. A single evaluation of disease level is carried out 3 to 14 days after inoculation, depending on the pathosystem. Percent disease control relative to the untreated check leaf disks or segments is then calculated. Soybean leaf disks are placed on water agar in multiwell plates (24-well format) and sprayed with the formulated test compound diluted in water. One day after application leaf discs are inoculated by spraying a spore suspension on the lower leaf surface. After an incubation period in a climate cabinet of 24-36 hours in darkness at 20° C. and 75% rh leaf disc are kept at 20° C. with 12 h light/day and 75% rh. The activity of a compound is assessed as percent disease control compared to untreated when an appropriate level of disease damage appears in untreated check leaf disks (12 to 14 days after application).

Molecules are shown by their SMILES. Values joined by “and” are separate entries in the source; they are usually repeats but may differ in a detail not shown here. Equal entries are not always repeated.

On to `FC(F)(F)c1nc(-c2ccc(COC3=NOCC3)cc2)no1` [Compound 1.2, 3-[4-(4,5-dihydroisoxazol-3-yloxymethyl)phenyl]-5-(trifluoromethyl)-1,2,4-oxadiazole], for which the melting point was 97 to 101 °C and 97 to 100.9 °C. In addition, in data set [1], the pest or weed control at 200 ppm is at least 80%. The pest or weed control at 200 ppm in data set [2] is at least 80%. For the same compound, the inhibition of growth at 20 ppm in data set [3] was at least 80%. In addition, in the data set on Phakopsora pachyrhizi, the pest or weed control at 200 ppm was at least 80%.

Compound `FC(F)(F)c1nc(-c2ccc(COc3ccon3)cc2)no1` [Compound 1.4, 3-[4-(isoxazol-3-yloxymethyl)phenyl]-5-(trifluoromethyl)-1,2,4-oxadiazole] returned a melting point of 61.8 to 64.4 °C. The pest or weed control at 200 ppm in data set [1] is at least 80%. In addition, the pest or weed control at 200 ppm in data set [2] is at least 80%. The inhibition of growth at 20 ppm in data set [3] was at least 80%. Besides, in the data set with Phakopsora pachyrhizi, the pest or weed control at 200 ppm was at least 80%.

As to `Cc1cc(OCc2ccc(-c3noc(C(F)(F)F)n3)cc2)no1` [Compound 1.5, 3-[4-[(5-methylisoxazol-3-yl)oxymethyl]phenyl]-5-(trifluoromethyl)-1,2,4-oxadiazole], the melting point fell in the range of 81.2 to 82.6 °C. For the same compound, the pest or weed control at 200 ppm in data set [1] is at least 80%. In addition, the pest or weed control at 200 ppm in data set [2] is at least 80%. For the same compound, in data set [3], the inhibition of growth at 20 ppm was at least 80%. In addition, the pest or weed control at 200 ppm with Phakopsora pachyrhizi was at least 80%.

`Cn1nnnc1OCc1ccc(-c2noc(C(F)(F)F)n2)cc1` [Compound 1.8, 3-[4-[(1-methyltetrazol-5-yl)oxymethyl]phenyl]-5-(trifluoromethyl)-1,2,4-oxadiazole]: the melting point lay within 113.3 to 114.2 °C. Moreover, the pest or weed control at 200 ppm in data set [1] was at least 80%. Moreover, the pest or weed control at 200 ppm in data set [2] was at least 80%. The inhibition of growth at 20 ppm in data set [3] was at least 80%. The pest or weed control at 200 ppm with Phakopsora pachyrhizi is at least 80%.

As to `Fc1ccccc1OCc1ccc(-c2noc(C(F)(F)F)n2)cc1` [Compound 1.11, 3-[4-[(2-fluorophenoxy)methyl]phenyl]-5-(trifluoromethyl)-1,2,4-oxadiazole], the melting point was in the range of 108 to 110 °C. Also, the pest or weed control at 200 ppm in data set [1] is at least 80%. Also, in data set [2], the pest or weed control at 200 ppm was at least 80%. The inhibition of growth at 20 ppm in data set [3] was at least 80%. In addition, in the data set with Phakopsora pachyrhizi, the pest or weed control at 200 ppm was at least 80%.

With `Cn1ccc(OCc2ccc(-c3noc(C(F)(F)F)n3)cc2)n1` [Compound 1.17, 3-[4-[(1-methylpyrazol-3-yl)oxymethyl]phenyl]-5-(trifluoromethyl)-1,2,4-oxadiazole], the melting point was in the range of 84.9 to 87.8 °C. The pest or weed control at 200 ppm in data set [1] was at least 80%. Further, the pest or weed control at 200 ppm in data set [2] was at least 80%. Also, the inhibition of growth at 20 ppm in data set [3] is at least 80%. For the same compound, the pest or weed control at 200 ppm with Phakopsora pachyrhizi was at least 80%.

Take `CC(=O)n1ccc(OCc2ccc(-c3noc(C(F)(F)F)n3)cc2)n1` [Compound 1.18, 1-[3-[[4-[5-(trifluoromethyl)-1,2,4-oxadiazol-3-yl]phenyl]methoxy]pyrazol-1-yl]ethanone]: the melting point lay in the range of 86.1 to 87.3 °C. In data set [1], the pest or weed control at 200 ppm was at least 80%. Moreover, the pest or weed control at 200 ppm in data set [2] is at least 80%. For the same compound, the inhibition of growth at 20 ppm in data set [3] was at least 80%. In the data set with Phakopsora pachyrhizi, the pest or weed control at 200 ppm was at least 80%.

The compound `Cc1cc(OCc2ccc(-c3noc(C(F)(F)F)n3)cc2)n[nH]1` [Compound 1.19, 3-[4-[(5-methyl-1H-pyrazol-3-yl)oxymethyl]phenyl]-5-(trifluoromethyl)-1,2,4-oxadiazole] showed a melting point of 137.4 to 141.8 °C. Moreover, the pest or weed control at 200 ppm in data set [1] is at least 80%. Besides, the pest or weed control at 200 ppm in data set [2] was at least 80%. In addition, the inhibition of growth at 20 ppm in data set [3] is at least 80%. Also, the pest or weed control at 200 ppm in the data set with Phakopsora pachyrhizi is at least 80%.

What is called melting point is the temperature, or range, at which the solid turns liquid.
